Laboratory results reported in patent US20180214428A1, “3-(1H-INDOL-2-YL)-1H-PYRAZOLO[3,4-B]PYRIDINES AND THERAPEUTIC USES THEREOF” (Samumed, LLC, priority 2015, published 2018).

Columns and labels:
[1] = test system: Wnt activity (Sp5-Luc reporter gene, SW480 colon carcinoma cells); experiment: Screening assay for Wnt activity: Sp5-Luc reporter gene assay in SW480 cells; format: cell-based, human; settings: for EC50: overnight incubation; for inhibition at 10 µM: given for EC50 of >10 μM, read-out: percent inhibition at 10 μM
How it was run: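 SW480 cells stably transduced with a luciferase reporter driven by an Sp5 promoter of eight TCF/LEF sites were plated at 4,000 cells/well in 1% FBS medium. They were exposed overnight at 37° C to a 10-point 1:3 dilution series from 10 μM (0.1% DMSO). Luminescence was normalized to DMSO for four-parameter EC50, or percent inhibition at 10 μM.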

[2] = test system: primary human mesenchymal stem cells (hMSCs); experiment: Induction of chondrogenesis in primary human mesenchymal stem cells; format: cell-based; settings: 6 days; for Emax / EC50: Homo sapiens, Mesenchymal stem cells, 144 h; for Emax: read-out: Max. Activity as % TGF-β3 activity; for EC50: concentration required to induce 50% levels of chondrogenesis vs TGF-β3, read-out: Conc (nM) of 50% TGF-β3 activity
Experimental: Representative compounds were screened using primary human mesenchymal stem cells (hMSCs) to determine their ability to induce chondrogenesis (process by which cartilage is developed).
Primary human mesenchymal stem cells (hMSCs) were purchased from Lonza (Walkersville, Md.) and expanded in Mesenchymal Stem Cell Growth Media (Lonza). Cells between passage 3 and 6 were used for the experiments.
Each compound was dissolved in DMSO as a 10 mM stock and used to prepare compound source plates. Serial dilution (1:3, 6-point dose-response curves from 2700 nM to 10 nM) and compound transfer was performed using the ECHO 550 (Labcyte, Sunnyvale, Calif.) into 96-well clear bottom assay plates (Greiner Bio-One) with appropriate DMSO backfill for a final DMSO concentration of 0.03%. hMSCs were plated at 20,000 cells/well in 250 μL/well Incomplete Chondrogenic Induction Medium (Lonza; DMEM, dexamethasone, ascorbate, insulin-transferrin-selenium [ITS supplement], gentamycin-amphotericin [GA-1000], sodium pyruvate, proline and L-glutamine). TGF-β3 (10 ng/mL) was used as a positive control for differentiation while negative control wells were treated with 75 nL DMSO for normalization and calculating EC50 values. Cells were incubated at 37° C. and 5% CO2 for 6 days. To image chondrogenic nodules, the cells were fixed using 4% formaldehyde (Electron Microscopy Sciences), and stained with 2 μg/mL Rhodamine B (Sigma-Aldrich) and 20 μM Nile Red (Sigma-Aldrich) [Johnson K., et. al, A Stem Cell-Based Approach to Cartilage Repair, Science, (2012). 336(6082), 717-721]. The nodules imaged (4 images per well at 4× magnification) by excitation at 531 nm and emission at 625 nm and quantified using the CellInsight CX5 (Thermo Scientific). Number of nodules in each well was normalized to the average of 3 DMSO treated wells on the same plate using Excel (Microsoft Inc.). The normalized averages (fold change over DMSO) of 3 replicate wells for each compound concentration were calculated. Due to solubility limitations of some of the compounds, curve fitting was incomplete leading to inaccurate EC50 determinations.
Using TGF-β3 as a positive control, the concentration of representative compounds required to induce 50% levels of chondrogenesis is reported. In addition, the maximum activity of each compound and the respective dose that each compound reached maximum chondrogenesis activity is reported.

[3] = chondrogenic nodules, TGF-β3 (10 ng/mL) positive control

SMILES	EC50 ([1]; Homo sapiens)	Emax [2, 3]	also measured
FC1(F)CCN(Cc2cncc(-c3cnc4[nH]nc(-c5cc6c(-c7ccoc7)cccc6[nH]5)c4c3)c2)C1 [Compound 308, 5-(5-((3,3-Difluoropyrrolidin-1-yl)methyl)pyridin-3-yl)-3-(4-(furan-3-yl)-1H-indol-2-yl)-1H-pyrazolo[3,4-b]pyridine]	1000 nM	72%	EC50 [2]: 30 nM
CCCCC(=O)Nc1cncc(-c2cnc3[nH]nc(-c4cc5c(-c6ccccn6)cccc5[nH]4)c3c2)c1 [Compound 136, N-(5-(3-(4-(Pyridin-2-yl)-1H-indol-2-yl)-1H-pyrazolo[3,4-b]pyridin-5-yl)pyridin-3-yl)pentanamide]	385 nM	41%	
CC(C)CC(=O)Nc1cncc(-c2cnc3[nH]nc(-c4cc5c(-c6cc(F)cc(NCCN(C)C)c6)cccc5[nH]4)c3c2)c1 [Compound 424, N-(5-(3-(4-(3-((2-(Dimethylamino)ethyl)amino)-5-fluorophenyl)-1H-indol-2-yl)-1H-pyrazolo[3,4-b]pyridin-5-yl)pyridin-3-yl)-3-methylbutanamide]	304 nM	63%	
Nc1cncc(-c2cnc3[nH]nc(-c4cc5c(-c6ccccc6F)cccc5[nH]4)c3c2)c1 [Compound 49, 5-(3-(4-(2-Fluorophenyl)-1H-indol-2-yl)-1H-pyrazolo[3,4-b]pyridin-5-yl) pyridin-3-amine]	99 nM	134%	
CN(C)CCNc1cc(F)cc(-c2cccc3[nH]c(-c4n[nH]c5ncc(-c6cncc(CN7CCCCC7)c6)cc45)cc23)c1 [Compound 437, N^1-(3-Fluoro-5-(2-(5-(5-(piperidin-1-ylmethyl)pyridin-3-yl)-1H-pyrazolo[3,4-b]pyridin-3-yl)-1H-indol-4-yl)phenyl)-N^2,N^2-dimethylethane-1,2-diamine]	2780 nM	175%	EC50 [2]: 900 nM
CN(C)Cc1cncc(-c2cnc3[nH]nc(-c4cc5c(-c6cc(F)cc(CNS(C)(=O)=O)c6)cccc5[nH]4)c3c2)c1 [Compound 463, N-(3-(2-(5-(5-((Dimethylamino)methyl)pyridin-3-yl)-1H-pyrazolo[3,4-b]pyridin-3-yl)-1H-indol-4-yl)-5-fluorobenzyl)methane sulfonamide]	489 nM	65%	EC50 [2]: 100 nM
CN(C)CCNc1cc(F)cc(-c2cccc3[nH]c(-c4n[nH]c5ncc(-c6cncnc6)cc45)cc23)c1 [Compound 449, N^1-(3-Fluoro-5-(2-(5-(pyrimidin-5-yl)-1H-pyrazolo[3,4-b]pyridin-3-yl)-1H-indol-4-yl)phenyl)-N^2,N^2-dimethylethane-1,2-diamine]	2600 nM	17%	
CN(C)c1cncc(-c2cnc3[nH]nc(-c4cc5c(N6CCCCC6)cccc5[nH]4)c3c2)c1 [Compound 151, N,N-Dimethyl-5-(3-(4-(piperidin-1-yl)-1H-indol-2-yl)-1H-pyrazolo[3,4-b]pyridin-5-yl)pyridin-3-amine]	982 nM	22%	
CC(C)Nc1cncc(-c2cnc3[nH]nc(-c4cc5c(-c6cccnc6)cccc5[nH]4)c3c2)c1 [Compound 81, N-Isopropyl-5-(3-(4-(pyridin-3-yl)-1H-indol-2-yl)-1H-pyrazolo[3,4-b]pyridin-5-yl)pyridin-3-amine]	450 nM	264%	EC50 [2]: 10 nM
CN(C)CCNc1cc(F)cc(-c2cccc3[nH]c(-c4n[nH]c5ncc(-c6ccncc6)cc45)cc23)c1 [Compound 440]			EC50 [1]: 6070 nM; Max. Activity as % TGF-β3 activity [2, 3]: 31%; Conc (nM) of Max. activity ([2]; chondrogenic nodules, dose at which maximum chondrogenesis activity was reached): 2700 nM
CC(C)(C)C(=O)Nc1cncc(-c2cnc3[nH]nc(-c4cc5c(-c6cccnc6)cccc5[nH]4)c3c2)c1 [Compound 78, N-(5-(3-(4-(Pyridin-3-yl)-1H-indol-2-yl)-1H-pyrazolo[3,4-b]pyridin-5-yl)pyridin-3-yl)pivalamide]	634 nM	232%	EC50 [2]: 300 nM
CN(C)CCNc1cc(F)cc(-c2cccc3[nH]c(-c4n[nH]c5ncc(-c6cncc(OC7CCCCC7)c6)cc45)cc23)c1 [Compound 785, N^1-(3-(2-(5-(5-(Cyclohexyloxy)pyridin-3-yl)-1H-pyrazolo[3,4-b]pyridin-3-yl)-1H-indol-4-yl)-5-fluorophenyl)-N^2,N^2-dimethylethane-1,2-diamine]	2950 nM	147%	EC50 [2]: 30 nM
CC(C)C(=O)Nc1cncc(-c2cnc3[nH]nc(-c4cc5c(N6CCN(C)CC6)cccc5[nH]4)c3c2)c1 [Compound 209, N-(5-(3-(4-(4-Methylpiperazin-1-yl)-1H-indol-2-yl)-1H-pyrazolo[3,4-b]pyridin-5-yl)pyridin-3-yl)isobutyramide]	2710 nM		
CN1CCN(c2cccc3[nH]c(-c4n[nH]c5ncc(-c6ccncc6)cc45)cc23)CC1 [Compound 218, 3-(4-(4-Methylpiperazin-1-yl)-1H-indol-2-yl)-5-(pyridin-4-yl)-1H-pyrazolo[3,4-b]pyridine]	> 10000 nM		inhibition at 10 µM ([1]; Homo sapiens): 7.7%
Fc1cccc(-c2cccc3[nH]c(-c4n[nH]c5ncc(-c6ccncc6)cc45)cc23)c1 [Compound 15, 3-(4-(3-Fluorophenyl)-1H-indol-2-yl)-5-(pyridin-4-yl)-1H-pyrazolo[3,4-b]pyridine]	> 10000 nM		inhibition at 10 µM ([1]; Homo sapiens): 26%
O=C(Nc1cncc(-c2cnc3[nH]nc(-c4cc5c(-c6ccc(F)cc6)cccc5[nH]4)c3c2)c1)C1CCC1 [Compound 41, N-(5-(3-(4-(4-Fluorophenyl)-1H-indol-2-yl)-1H-pyrazolo[3,4-b]pyridin-5-yl)pyridin-3-yl)cyclobutanecarboxamide]	543 nM		
Cc1ccncc1-c1cnc2[nH]nc(-c3cc4c(-c5ccc(F)cc5)cccc4[nH]3)c2c1 [Compound 27, 3-(4-(4-Fluorophenyl)-1H-indol-2-yl)-5-(4-methylpyridin-3-yl)-1H-pyrazolo[3,4-b]pyridine]	3530 nM		
CCCCC(=O)Nc1cncc(-c2cnc3[nH]nc(-c4cc5c(N6CCCCC6)cccc5[nH]4)c3c2)c1 [Compound 163, N-(5-(3-(4-(Piperidin-1-yl)-1H-indol-2-yl)-1H-pyrazolo[3,4-b]pyridin-5-yl)pyridin-3-yl)pentanamide]	3390 nM		
CC(C)(C)CC(=O)Nc1cncc(-c2cnc3[nH]nc(-c4cc5ccccc5[nH]4)c3c2)c1 [Compound 242, N-(5-(3-(1H-Indol-2-yl)-1H-pyrazolo[3,4-b]pyridin-5-yl)pyridin-3-yl)-3,3-dimethylbutanamide]	1640 nM		
O=C(Nc1cncc(-c2cnc3[nH]nc(-c4cc5ccccc5[nH]4)c3c2)c1)C1CCCCC1 [Compound 249, N-(5-(3-(1H-Indol-2-yl)-1H-pyrazolo[3,4-b]pyridin-5-yl)pyridin-3-yl) cyclohexanecarboxamide]	2280 nM		
O=C(Nc1cncc(-c2cnc3[nH]nc(-c4cc5c(-c6ccc(F)cc6)cccc5[nH]4)c3c2)c1)c1ccccc1 [Compound 32, N-(5-(3-(4-(4-Fluorophenyl)-1H-indol-2-yl)-1H-pyrazolo[3,4-b]pyridin-5-yl)pyridin-3-yl)benzamide]	2830 nM		
Oc1cncc(-c2cnc3[nH]nc(-c4cc5c(-c6cccs6)cccc5[nH]4)c3c2)c1 [Compound 711, 5-(3-(4-(Thiophen-2-yl)-1H-indol-2-yl)-1H-pyrazolo[3,4-b]pyridin-5-yl) pyridin-3-ol]	9770 nM		
